Patent US10260068B2, “Prophylactic agent and therapeutic agent for fibrodysplasia ossificans progressiva” (Sumitomo Dainippon Pharma Co., Ltd., priority 2014, dated 2019)

B1: BMP-7: Recombinant Human BMP-7 (R&D Systems); cytokine of the BMP family (protein)
chain: STGSKQRSQNRSKTPKNQEALRMANVAENSSSDQRQACKKHELYVSFRDLGWQDWIIAPEGYAAYYCEGECAFPLNSYMNATNHAIVQTLVHFINPETVPKPCCAPTQLNAISVLYFDDSSNVILKKYRNMVVRACGCH

Key:
[1] = system: mutant ACVR1; test: ID1 gene promoter luciferase reporter in U2OS cells with transfer of mutant ACVR1; format: cell-based, human; conditions: U2OS cells with transfer of each mutant ACVR1 of Table 1; 10 ng/mL, 20 hours
Protocol: A Firefly luciferase reporter plasmid having the promoter region of the ID1 gene, as a typical downstream gene of BMP (Genes Cells. 2002 September; 7(9):949-60), was mixed with a plasmid including different mutant ACVR1 genes reported to elicit FOP, and FuGene HD was used on U2OS cells for transfection. At 1 hour after transfection, human activin A (final concentration: 10 ng/mL) was added and the transfected cells were cultured for 20 hours. Next, the luciferase activity was measured according to the protocol provided with a Bright-Glo Luciferase Assay System (product of Promega Corp.). In FIG. 8, each sample name is listed according to Table 1 above, based on the amino acid mutation of ACVR1.

[2] = system: gene-corrected clone derived cells; test: Differentiation to chondrocytes (sulfated glycosaminoglycan assay) of gene-corrected clone derived cells; format: cell-based, human; conditions: 100 ng/mL BMP-7 or 1 ng/mL TGF-β3, 6 days, vs untreated group
Protocol: Mesenchymal stem cell-like cells from a patient iPS cell line and a gene-corrected iPS cell clone were each prepared by the same method as Example 1. The mesenchymal stem cell-like cells were cultured for 6 days under the medium conditions used in the method of Umeda et al. (Sci. Rep., 2012, 2, 455), for differentiation to chondrocytes. During differentiation, 100 ng/mL of human activin A, 100 ng/mL of human BMP-7 or 1 ng/mL of human TGF-β3 (product of R&D Systems, Inc., trade name: Recombinant Human TGF-beta 3) was added and the effect of each factor on differentiation to chondrocytes was examined. The extent of differentiation to chondrocytes was measured with Alcian blue dye and a sulfated glycosaminoglycan assay kit (product of Biocolor, Ltd., trade name: Blyscan Glycosaminoglycan Assay Kit). In FIG. 4, the bar graph indicates the mean values for each treated group, and the error bars represent S.D.

Row | Molecule | transcription activity via ACVR1 (ID1 gene promoter luciferase) [1] | cartilage induction (sulfated glycosaminoglycan assay) [2]
1 | human activin A: Recombinant Human/Mouse/Rat Activin A (R&D Systems); homodimer of inhibin βA chains | increased | –
2 | B1 | – | significantly enhanced
